Measurements published in patent US20160115540A1, “PRODRUGS AND DRUGS” (Biogen MA Inc., priority 2013, published 2016).
Counter-ions that a name gives are not always drawn.

System: jejunum
Experiment: Transcriptional profiling on Affymetrix GeneChips, single dose, naïve mice: jejunum
Type: in vivo, C57BL/6 mice
Protocol: Treated mice were sacrificed at 2, 7, or 12 hours. Tissues (liver, spleen, kidney, jejunum, cortex, hippocampus, striatum and whole blood) were collected and analyzed by transcriptional profiling on mouse Affymetrix GeneChips.
Tissues (liver, spleen, kidney, jejunum, cortex, hippocampus, striatum and whole blood) were collected and analyzed by transcriptional profiling on mouse Affymetrix GeneChips.
Animals were exposed to CO2 and whole blood collected via cardiac puncture. Two 100 μl aliquots of whole blood were collected in 1.5 mL microcentrifuge tubes and snap frozen in liquid nitrogen. Peripheral (liver, spleen, kidney and jejunum) and CNS brain (cerebellum, hippocampus, striatum and cortex) tissues were harvested and snap frozen in liquid nitrogen, with special care taken to collect tissues of similar size and from the same location. All samples were stored at −80° C. until RNA extraction was conducted.
For RNA preparation, frozen tissues were placed in 2 mL RNAse-free 96-well blocks with 1.5 mL QIAzol Lysis Reagent (QIAgen) and a 3.2 mm stainless steel bead (BioSpec Products, Bartlesville, Okla.). Tissues were disrupted for four cycles of 45 seconds in a Mini-Beadbeater (Biospec Products). RNA was extracted in chloroform and the aqueous phase was mixed with an equal volume of 70% ethanol. Extracted RNA was applied to RNeasy 96 plates and purified by the spin method according to the manufacturer's protocol (RNeasy 96 Universal Tissue Protocol, QIAgen, Hilden Germany).
Automated sample amplifications and biotin labelings were carried out using the NuGEN Ovation RNA Amplification system V2 (Cat #3100), Ovation WB reagent (Cat #1300) and Encore Biotin module (Cat #4200) (NuGEN Technologies, Inc, San Carlos, Calif.) according to manufacturer's recommendations using an Arrayplex automated liquid handler (Beckman Coulter, Indianapolis, Ind.). Two micrograms of biotin labeled sscDNA probe were hybridized to Affymetrix GeneChip Affymetrix HT_MG-430_PM plate arrays with modified conditions as described in Allaire et al. Washing and staining of the hybridized arrays were completed as described in the GeneChip Expression analysis technical manual for HT plate arrays using the Genechip® Array Station (Affymetrix, Santa Clara, Calif.) with modifications as described in Allaire et al. The processed GeneChip® plate arrays were scanned using GeneTitan scanner (Affymetrix, Santa Clara, Calif.).
Affymetrix scans were subject to quality control (QC) measures. These tests included a visual inspection of the distribution of raw signal intensities and an assessment of RNA degradation, relative log expression (RLE), and normalized unsealed standard error (NUSE). All sample scans that passed these QC metrics were included in the analysis.
All CEL files were subjected to GC-content-based Robust Multi-array Average (GCRMA) normalization (version 2.20.0) (Irizarry R A, et al. Nucleic Acids Res 2003; 31:e15; Li C, et al. Genome Biol 2001; 2:[…]0032). Expression levels were log (base 2) transformed.
All calculations and analyses were carried out using R (version 2.11.1) and Bioconductor computational tools (Gentleman R. Springer Science+Business Media 2005).

[1] = 100DMF-vs-Veh or 100MMF-vs-Veh, 12 h

## COC(=O)/C=C/C(=O)O [MMF, monomethyl fumarate]
[1]
  FC Abcc3 (1428988_PM_at): 2.10
  FC Acsm5 (1437662_PM_at): 1.95
  FC Akr1b8 (1448894_PM_at): 18.78
  FC Akr1c12 (1450455_PM_s_at): 1.76
  FC Akr1c19 (1455454_PM_at): 3.53
  FC Blvrb (1451386_PM_at): 1.54
  FC Cbr3 (1427912_PM_at): 32.24
  FC Ces1e (1419510_PM_at): 2.77
  FC Ces1f (1424266_PM_s_at): 6.54
  FC Ces1g (1449486_PM_at): 9.45
  FC G6pd2 (1422327_PM_s_at): 1.83
  FC Gpx2 (1449279_PM_at): 1.54
  FC Gsr (1421816_PM_at): 2.67
  FC Gss (1441931_PM_x_at): 1.55
  FC Gsta2 (1421040_PM_a_at): 6.66
  FC Gsta2 (1421041_PM_s_at): 2.09
  FC Gsta3 (1423436_PM_at): 10.80
  FC Gsta3 (1423437_PM_at): 7.97
  FC Gstm1 (1425627_PM_x_at): 4.61
  FC Gstm1 (1448330_PM_at): 4.27
  FC Gstm3 (1427473_PM_at): 2.14
  FC Gstm3 (1427474_PM_s_at): 1.58
  FC Gstm4 (1424835_PM_at): 5.43
  FC Gstm6 (1422072_PM_a_at): 2.19
  FC Nqo1 (1423627_PM_at): 2.34
  FC Pir (1429001_PM_at): 4.19
  FC Setd4 (1425239_PM_at): 1.60
  FC Setd4 (1460373_PM_a_at): 1.56
  FC Slc5a4b (1422757_PM_at): 2.16
  FC Ugt2b5 (1419622_PM_at): 5.00
  FC Ugt2b35 (1439624_PM_at): 2.45
  FC Ugt2b36 (1455595_PM_at): 3.03
100MMF-vs-Veh, 2 h
  FC 6-Sep (1424181_PM_at): 1.56
  FC 1443118_PM_at: 1.69
  FC 1444265_PM_at: 1.93
  FC 1445980_PM_at: 2.43
  FC 1446045_PM_at: 1.69
  FC 1447411_PM_at: 2.81
  FC 1459091_PM_at: 2.02
  FC 2010002N04Rik (1423306_PM_at): 1.57
  FC 9030409G11Rik (1434169_PM_at): 1.52
  FC 9130221J17Rik (1443159_PM_at): 2.36
  FC Acss2 (1446542_PM_at): 1.84
  FC Akr1b8 (1448894_PM_at): 8.24
  FC Akr1c19 (1455454_PM_at): 2.33
  FC Areg (1421134_PM_at): 2.71
  FC Blvrb (1451386_PM_at): 1.57
  FC Bmp2 (1423635_PM_at): −1.55
  FC Cbr1 (1460196_PM_at): 1.53
  FC Cbr3 (1427912_PM_at): 55.49
  FC Ces1f (1424266_PM_s_at): 2.71
  FC Ces1g (1449486_PM_at): 3.68
  FC Dnase2a (1430135_PM_at): 1.79
  FC Dppa5a (1416552_PM_at): 2.64
  FC Ereg (1419431_PM_at): 2.00
  FC Ero1l (1419030_PM_at): 1.90
  FC Esd (1441604_PM_at): 1.52
  FC Figf (1438953_PM_at): 1.63
  FC G6pd2 (1422327_PM_s_at): 1.74
  FC Gabarapl1 (1416418_PM_at): 1.52
  FC Gclc (1424296_PM_at): 3.99
  FC Gclc (1455959_PM_s_at): 3.06
  FC Gsr (1421816_PM_at): 2.19
  FC Gss (1441931_PM_x_at): 1.92
  FC Gss (1448273_PM_at): 1.69
  FC Gsta3 (1423436_PM_at): 3.23
  FC Gsta3 (1423437_PM_at): 3.64
  FC Gstm1 (1416416_PM_x_at): 2.38
  FC Gstm1 (1425627_PM_x_at): 2.70
  FC Gstm1 (1448330_PM_at): 2.47
  FC Gstm3 (1427473_PM_at): 2.51
  FC Gstm3 (1427474_PM_s_at): 1.57
  FC Hfe 1422645_PM_at: 1.73
  FC Htatip2 (1451814_PM_a_at): 1.53
  FC LOC100504040 (1457279_PM_at): 2.24
  FC Lpin2 (1452837_PM_at): 1.61
  FC Lrp8 (1440882_PM_at): 2.23
  FC Mafg (1434054_PM_at): 1.95
  FC Mafg (1448916_PM_at): 2.01
  FC Nqo1 (1423627_PM_at): 2.16
  FC Osgin1 (1424022_PM_at): 1.98
  FC Prr5l (1452834_PM_at): −1.64
  FC Prss8 (1418320_PM_at): 2.41
  FC Setd4 (1425239_PM_at): 2.11
  FC Setd4 (1435405_PM_at): 1.93
  FC Setd4 (1460373_PM_a_at): 1.87
  FC Slc2a1 (1426599_PM_a_at): 1.53
  FC Slc2a1 (1426600_PM_at): 1.68
  FC Slc40a1 (1417061_PM_at): 2.73
  FC Slc48a1 1450410_PM_a_at: 1.62
  FC Slfn2 (1450165_PM_at): −1.82
  FC Srxn1 (1425351_PM_at): 1.77
  FC St3gal6 (1449078_PM_at): 1.52
  FC Tkt (1436605_PM_at): 1.73
  FC Tnfaip3 1433699_PM_at: −1.67
  FC Tox3 (1436600_PM_at): 1.81
  FC Ugt2b5 (1419622_PM_at): 3.13
  FC Ugt2b35 (1439624_PM_at): 3.08
100MMF-vs-Veh, 7 h
  FC 1110020G09Rik (1437287_PM_at): 1.74
  FC 1447411_PM_at: 1.97
  FC 9130221J17Rik (1443159_PM_at): 1.61
  FC 9430069I07Rik (1431672_PM_at): 3.66
  FC Abcc2 (1450109_PM_s_at): 1.51
  FC Abcc3 (1428988_PM_at): 2.26
  FC Acsm5 (1437662_PM_at): 1.71
  FC Acss2 (1446542_PM_at): 2.06
  FC Akr1b8 (1448894_PM_at): 14.16
  FC Akr1c12 (1450455_PM_s_at): 1.58
  FC Akr1c13 (1418672_PM_at): 1.86
  FC Akr1c19 (1455454_PM_at): 2.39
  FC Aldh1a7 (1418601_PM_at): 1.86
  FC Areg (1421134_PM_at): 2.93
  FC Asns 1451095_PM_at: 1.60
  FC Blvrb (1451386_PM_at): 1.55
  FC Capn13 (1437960_PM_at): −1.75
  FC Cbr1 (1460196_PM_at): 1.83
  FC Cbr3 (1427912_PM_at): 40.98
  FC Ces1e (1419510_PM_at): 2.44
  FC Ces1f (1424266_PM_s_at): 5.19
  FC Ces1g (1449486_PM_at): 9.24
  FC Ddc (1426215_PM_at): 2.03
  FC Dppa5a (1416552_PM_at): 1.88
  FC Enkur (1428960_PM_at): −1.56
  FC Entpd5 (1451765_PM_a_at): 1.60
  FC Esd (1438488_PM_at): 2.15
  FC Fam162a (1451385_PM_at): 1.67
  FC G6pd2 (1422327_PM_s_at): 2.06
  FC G6pdx (1448354_PM_at): 1.76
  FC Gclc (1424296_PM_at): 2.87
  FC Gclc (1455959_PM_s_at): 2.48
  FC Gm14446 (1435529_PM_at): −1.65
  FC Gpx2 (1449279_PM_at): 1.53
  FC Gsr (1421816_PM_at): 3.13
  FC Gss (1441931_PM_x_at): 2.20
  FC Gss (1448273_PM_at): 2.25
  FC Gsta2 (1421040_PM_a_at): 9.84
  FC Gsta2 (1421041_PM_s_at): 1.90
  FC Gsta3 (1423436_PM_at): 5.71
  FC Gsta3 (1423437_PM_at): 5.75
  FC Gstm1 (1416416_PM_x_at): 3.95
  FC Gstm1 (1425627_PM_x_at): 4.80
  FC Gstm1 (1448330_PM_at): 4.23
  FC Gstm2 (1416411_PM_at): 2.09
  FC Gstm3 (1427473_PM_at): 3.46
  FC Gstm3 (1427474_PM_s_at): 1.99
  FC Gstm4 (1424835_PM_at): 5.75
  FC Gstm6 (1422072_PM_a_at): 2.23
  FC Gstm7 (1419072_PM_at): 1.97
  FC Htatip2 (1451814_PM_a_at): 1.68
  FC Ifit1 (1450783_PM_at): −1.95
  FC Matn2 (1419442_PM_at): 1.59
  FC Matn2 (1455978_PM_a_at): 2.21
  FC Me1 (1416632_PM_at): 2.01
  FC Nqo1 (1423627_PM_at): 2.63
  FC Pgd 1423706_PM_a_at: 1.55
  FC Pgm2 (1451149_PM_at): 1.54
  FC Pir (1429001_PM_at): 5.12
  FC Prss8 (1418320_PM_at): 1.75
  FC Rsad2 (1421009_PM_at): −1.84
  FC Rsad2 (1436058_PM_at): −1.81
  FC Rtp4 (1418580_PM_at): −1.61
  FC Setd4 (1425239_PM_at): 2.27
  FC Setd4 (1435405_PM_at): 1.76
  FC Setd4 (1460373_PM_a_at): 1.77
  FC Slc5a4b (1422757_PM_at): 1.79
  FC Slc35e3 (1428805_PM_at): 1.67
  FC Txnrd1 (1424486_PM_a_at): 2.07
  FC Txnrd1 (1424487_PM_x_at): 1.93
  FC Ugt2b5 (1419622_PM_at): 4.50
  FC Ugt2b35 (1439624_PM_at): 3.31
  FC Ugt2b36 (1455595_PM_at): 2.50
100MMF-vs-Veh, 12 h
  FC Acss2 (1446542_PM_at): 1.52
